In the NIST ThermoML archive (doi:10.1021/acs.jced.7b00393):
Numbers after ± are expanded uncertainties.

Key:
[1] = refractive index (Na D-line) (dimensionless); details: 298.2 K; 101.33 kPa; Liquid; Standard Abbe refractometry
[2] = 298.2 K; 101.33 kPa; Liquid; Vibrating tube method
[3] = refractive index (Na D-line) (dimensionless); wn = mass fraction of the nth substance listed; details: 81.5 kPa, Liquid, Standard Abbe refractometry

refractive index [1]	mass density [2]	refractive index ([3]; 293.2 K, w2 = 0.0006)	refractive index ([3]; 293.2 K, w2 = 0.9998)	refractive index ([3]; 298.2 K, w2 = 0.0009)	refractive index ([3]; 298.2 K, w2 = 0.9996)	refractive index ([3]; 308.2 K, w2 = 0.0011)	refractive index ([3]; 308.2 K, w2 = 0.9994)	SMILES
1.49005 ± 0.0014	857.54 ± 1.7 kg/m3	–	–	–	–	–	–	CC(C)c1ccccc1 [isopropylbenzene]
–	–	1.4915 ± 0.0014	1.3335 ± 0.0014	1.49001 ± 0.0014	1.333 ± 0.0014	1.4859 ± 0.0014	1.33195 ± 0.0014	CC(C)c1ccccc1 [isopropylbenzene] + O
1.3325 ± 0.0014	–	–	–	–	–	–	–	O [water]
